Results taken from US20210171503A1, “GLYCOLATE OXIDASE INHIBITORS AND USE THEREOF” (ORFAN BIOTECH INC., priority 2017, published 2021).
Where a name gives a salt, the structure may show the parent alone.

Biological target: T1, mouse glycolate oxidase (mGO) (Mus musculus, UniProt Q9WU19)
T1 construct: His6 (N); made in house; host or cells: E. coli BL21 (DE3)
T1 sequence (Q9WU19 1-370): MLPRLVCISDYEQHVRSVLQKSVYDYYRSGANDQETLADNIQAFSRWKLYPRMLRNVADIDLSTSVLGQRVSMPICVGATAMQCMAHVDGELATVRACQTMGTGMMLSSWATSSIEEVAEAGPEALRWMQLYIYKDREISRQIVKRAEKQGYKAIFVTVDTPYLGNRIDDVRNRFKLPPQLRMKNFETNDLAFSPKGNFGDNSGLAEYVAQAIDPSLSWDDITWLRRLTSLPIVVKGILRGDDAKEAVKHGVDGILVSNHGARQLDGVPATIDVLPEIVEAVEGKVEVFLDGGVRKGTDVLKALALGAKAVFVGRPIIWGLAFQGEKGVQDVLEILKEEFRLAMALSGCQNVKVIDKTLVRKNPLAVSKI
Test: In vitro inhibition of mouse glycolate oxidase (mGO), HRP-coupled Trinder reaction
Assay type: biochemical
Details: compound tested at 100 μM; 40 mM glycolic acid as substrate; activity calculated at 1 minute
Protocol: Protein expression. BL21 (DE3) E. coli transformed with recombinant pET-15b expression vector containing mouse Hao1 cDNA with an N-terminal His6 tag was grown in LB medium in the presence of 0.1 mg/mL ampicillin. For purification of recombinant mGO expressed in BL21 E. coli, bacteria pellets were thawed and re-suspended in 2 mL lysis buffer (50 mM NaH2PO4, 300 mM NaCl, 10 mM imidazole, 50 μM flavin mononucleotide (FMN), pH 7.5), and then treated for 30 minutes with 1 mM phenylmethylsulfonyl fluoride (PMSF) for protease inhibition, 0.1% Triton X-100 and 0.2 mg/mL lysozyme to break cellular membranes. After sonication, cells were centrifuged and the supernatant containing the total cellular extract (pre-column fraction) was loaded into a Ni-NTA agarose column, and incubated for 30 minutes at 4° C. to allow binding. The column was washed with two bed volumes of lysis buffer with 20 mM imidazole to eliminate unbound proteins (wash fraction). mGO was eluted using the same buffer containing 300 mM imidazole. Fractions containing purified GO were dialyzed against 300 mL of dialysis buffer (50 mM NaH2PO4, 300 mM NaCl, pH 7.5) at 4° C. with agitation overnight, and then kept at 4° C. in darkness. Protein was quantified by the bicinchoninic acid (BCA) assay.
Inhibition assays. Enzymatic activity of mGO was determined in the presence of glycolate as substrate (40 mM glycolic acid) and phosphate buffer (50 mM KPO4, 0.1 mM EDTA, pH 7). The production of glyoxylate was indirectly measured by the quantification of hydrogen peroxide formed during the first oxidation reaction. This hydrogen peroxide reacted with 4.9 mM 4-aminoantipyrine and 0.1 mM sulphonated […] in a coupled horseradish peroxidase (HRP) reaction that yields a quinoneimine dye (FIG. 1) measured at 515 nm (Trinder reaction). Enzymatic activity was calculated at 1 minute after initiation of the Trinder reaction.

Structure (SMILES)	inhibition at 100 µM [%]
Cc1onc(C(=O)O)c1Cc1ccc(Br)cc1 [Compound 2, 4-(4-Bromobenzyl)-5-methylisoxazole-3-carboxylic Acid]	< 30
Cc1[nH]nc(C(=O)O)c1Cc1ccc(Br)cc1 [Compound 8, 4-(4-Bromobenzyl)-5-methyl-1H-pyrazole-3-carboxylic Acid]	< 30
Cc1snc(C(=O)O)c1Cc1ccc(F)cc1 [Compound 13, 4-(4-Fluorobenzyl)-5-methylisothiazole-3-carboxylic Acid]	< 30
N#Cc1ccc(-c2ccc(Cc3snnc3C(=O)O)cc2)cc1 [Compound 14, 5-((4′-Cyano-[1,1′-biphenyl]-4-yl)methyl)-1,2,3-thiadiazole-4-carboxylic Acid]	30 to 60
O=C(O)c1nnsc1Cc1ccc(Oc2ccccc2)cc1 [Compound 18, 5-(4-Phenoxybenzyl)-1,2,3-thiadiazole-4-carboxylic Acid]	30 to 60
O=C(O)c1nnccc1Cc1ccc(F)cc1 [Compound 19, 4-(4-Fluorobenzyl) pyridazine-3-carboxylic Acid]	30 to 60
O=C(O)c1nnsc1Nc1ccc(-n2cccn2)cc1 [Compound 20, 5-((4-(1H-Pyrazol-1-yl)phenyl)amino)-1,2,3-thiadiazole-4-carboxylic Acid]	> 60
Cc1onc(C(=O)O)c1NCc1ccc(F)cc1 [Compound 29, 4-((4-Fluorobenzyl)amino)-5-methylisoxazole-3-carboxylic Acid]	30 to 60
Cc1onc(C(=O)O)c1N(Cc1ccc(Oc2ccc(C#N)cc2)cc1)Cc1ccc(Oc2ccc(C#N)cc2)cc1 [Compound 32, 4-(bis(4-(4-Cyanophenoxy)benzyl)amino)-5-methylisoxazole-3-carboxylic Acid]	> 60
Cc1snc(C(=O)O)c1Nc1ccc(-c2ccc(C#N)cc2)cc1 [Compound 33, 4-((4′-Cyano-[1,1′-biphenyl]-4-yl)amino)-5-methylisothiazole-3-carboxylic Acid]	> 60
Cc1snc(C(=O)O)c1Nc1cccc(-c2ccc(C#N)cc2)c1 [Compound 36, 4-((4′-Cyano-[1,1′-biphenyl]-3-yl)amino)-5-methylisothiazole-3-carboxylic Acid]	30 to 60
Cc1[nH]nc(C(=O)O)c1Nc1ccc(-c2ccc(C#N)cc2)cc1 [Compound 39, 4-((4′-Cyano-[1,1′-biphenyl]-4-yl)amino)-5-methyl-H-pyrazole-3-carboxylic Acid]	30 to 60
Cc1[nH]nc(C(=O)O)c1Nc1cccc(Br)c1 [Compound 41, 4-((3-Bromophenyl)amino)-5-methyl-1H-pyrazole-3-carboxylic Acid]	30 to 60
Cc1n[nH]c(C(=O)O)c1NCc1ccc(F)cc1 [Compound 43, 4-((4-Fluorobenzyl)amino)-3-methyl-1H-pyrazole-5-carboxylic Acid]	30 to 60
Cc1n[nH]c(C(=O)O)c1N(Cc1ccc(F)cc1)Cc1ccc(F)cc1 [Compound 44, 4-(bis(4-Fluorobenzyl)amino)-3-methyl-1H-pyrazole-5-carboxylic Acid]	30 to 60
Cc1[nH]nc(C(=O)O)c1Nc1ccc(C#N)cc1 [Compound 45, 4-((4-Cyanophenyl)amino)-5-methyl-1H-pyrazole-3-carboxylic Acid]	30 to 60
Cc1onc(C(=O)O)c1Sc1ccc(F)cc1 [Compound 46, 4-((4-Fluorophenyl)thio)-5-methylisoxazole-3-carboxylic Acid]	30 to 60
COc1ccc(CNc2ccnnc2C(=O)O)c(OC)c1 [Compound 49, 4-((2,4-Dimethoxybenzyl)amino)pyridazine-3-carboxylic Acid Na Salt]	30 to 60

Now from value to molecule:

inhibition at 100 µM [%]	Structure (SMILES)
30 to 60	Cc1onc(C(=O)O)c1Cc1ccc(-c2ccc(C#N)cc2)cc1 [Compound 1, 4-((4′-Cyano-[1, 1′-biphenyl]-4-yl)methyl)-5-methylisoxazole-3-carboxylic Acid]
30 to 60	Cc1onc(C(=O)O)c1Cc1ccc(Oc2ccccc2)cc1 [Compound 6, 5-Methyl-4-(4-phenoxybenzyl) isoxazole-3-carboxylic Acid]
30 to 60	Cc1[nH]nc(C(=O)O)c1Cc1ccc(-c2ccc(C#N)cc2)cc1 [Compound 7, 4-((4′-Cyano-[1,1′-biphenyl]-4-yl)methyl)-5-methyl-H-pyrazole-3-carboxylic Acid]
30 to 60	Cc1[nH]nc(C(=O)O)c1Cc1ccc(Oc2ccccc2)cc1 [Compound 10, 5-Methyl-4-(4-phenoxybenzyl)-1H-pyrazole-3-carboxylic Acid]
< 30	Cc1[nH]nc(C(=O)O)c1Cc1ccc(F)cc1 [Compound 12, 5-Methyl-4-(4-fluorobenzyl) 1H-pyrazole-3-carboxylic Acid]
> 60	O=C(O)c1nnsc1Cc1ccc(Br)cc1 [Compound 15, 5-(4-Bromobenzyl)-1,2,3-thiadiazole-4-carboxylic Acid]
< 30	O=C(O)c1nnsc1Cc1ccc(F)cc1 [Compound 16, 5-(4-Fluorobenzyl)-1,2,3-thiadiazole-4-carboxylic Acid]
> 60	O=C(O)c1nnsc1Nc1ccc(F)cc1 [Compound 22, 5-((4-Fluorophenyl)amino)-1,2,3-thiadiazole-4-carboxylic Acid]
> 60	O=C(O)c1nnsc1Nc1cccc(Br)c1 [Compound 23, 5-((3-Bromophenyl)amino)-1,2,3-thiadiazole-4-carboxylic Acid]
> 60	O=C(O)c1nnsc1Nc1ccc(Br)cc1 [Compound 24, 5-((4-Bromophenyl)amino)-1,2,3-thiadiazole-4-carboxylic Acid]
< 30	Cc1onc(C(=O)O)c1Nc1ccc(C#N)cc1 [Compound 30, 4-((4-Cyanophenyl)amino)-5-methylisoxazole-3-carboxylic Acid]
30 to 60	Cc1onc(C(=O)O)c1NCc1ccc(Oc2ccc(C#N)cc2)cc1 [Compound 31, 4-((4-(4-Cyanophenoxy)benzyl)amino)-5-methylisoxazole-3-carboxylic Acid]
30 to 60	Cc1snc(C(=O)O)c1Nc1ccc(Br)cc1 [Compound 34, 4-((4-Bromophenyl)amino)-5-methylisothiazole-3-carboxylic Acid]
30 to 60	Cc1snc(C(=O)O)c1Nc1cccc(Br)c1 [Compound 35, 4-((3-Bromophenyl)amino)-5-methylisothiazole-3-carboxylic Acid]
30 to 60	Cc1snc(C(=O)O)c1NCc1ccc(F)cc1 [Compound 37, 4-((4-Fluorobenzyl)amino)-5-methylisothiazole-3-carboxylic Acid]
< 30	Cc1[nH]nc(C(=O)O)c1Nc1ccc(Br)cc1 [Compound 40, 4-((4-Bromophenyl)amino)-5-methyl-1H-pyrazole-3-carboxylic Acid]
30 to 60	Cc1[nH]nc(C(=O)O)c1Nc1cccc(-c2ccc(C#N)cc2)c1 [Compound 42, 4-((4′-Cyano-[1,1′-biphenyl]-3-yl)amino)-5-methyl-1H-pyrazole-3-carboxylic Acid]
30 to 60	N#Cc1ccc(-c2cccc(Nc3ccnnc3C(=O)O)c2)cc1 [Compound 48, sodium salt, 4-((4′-Cyano-[1,1′-biphenyl]-3-yl)amino)pyridazine-3-carboxylic Acid]
